From article PMC4771985, “Angiotensin I Converting Enzyme Inhibitory Peptides Derived from Phycobiliproteins of Dulse Palmaria palmata” (Marine Drugs, 2016)
Ends that are not written are not given here. Peptide text beside a SMILES is read from it.

Target: T1, ACE from rabbit lung (Oryctolagus cuniculus, UniProt P12822)
T1 construct: ACE from rabbit lung was purchased from Sigma Chemical Co; purchased Sigma Chemical Co. (St. Louis, MO, USA); host or cells: rabbit lung (tissue-derived)
T1 sequence (P12822 34-1310): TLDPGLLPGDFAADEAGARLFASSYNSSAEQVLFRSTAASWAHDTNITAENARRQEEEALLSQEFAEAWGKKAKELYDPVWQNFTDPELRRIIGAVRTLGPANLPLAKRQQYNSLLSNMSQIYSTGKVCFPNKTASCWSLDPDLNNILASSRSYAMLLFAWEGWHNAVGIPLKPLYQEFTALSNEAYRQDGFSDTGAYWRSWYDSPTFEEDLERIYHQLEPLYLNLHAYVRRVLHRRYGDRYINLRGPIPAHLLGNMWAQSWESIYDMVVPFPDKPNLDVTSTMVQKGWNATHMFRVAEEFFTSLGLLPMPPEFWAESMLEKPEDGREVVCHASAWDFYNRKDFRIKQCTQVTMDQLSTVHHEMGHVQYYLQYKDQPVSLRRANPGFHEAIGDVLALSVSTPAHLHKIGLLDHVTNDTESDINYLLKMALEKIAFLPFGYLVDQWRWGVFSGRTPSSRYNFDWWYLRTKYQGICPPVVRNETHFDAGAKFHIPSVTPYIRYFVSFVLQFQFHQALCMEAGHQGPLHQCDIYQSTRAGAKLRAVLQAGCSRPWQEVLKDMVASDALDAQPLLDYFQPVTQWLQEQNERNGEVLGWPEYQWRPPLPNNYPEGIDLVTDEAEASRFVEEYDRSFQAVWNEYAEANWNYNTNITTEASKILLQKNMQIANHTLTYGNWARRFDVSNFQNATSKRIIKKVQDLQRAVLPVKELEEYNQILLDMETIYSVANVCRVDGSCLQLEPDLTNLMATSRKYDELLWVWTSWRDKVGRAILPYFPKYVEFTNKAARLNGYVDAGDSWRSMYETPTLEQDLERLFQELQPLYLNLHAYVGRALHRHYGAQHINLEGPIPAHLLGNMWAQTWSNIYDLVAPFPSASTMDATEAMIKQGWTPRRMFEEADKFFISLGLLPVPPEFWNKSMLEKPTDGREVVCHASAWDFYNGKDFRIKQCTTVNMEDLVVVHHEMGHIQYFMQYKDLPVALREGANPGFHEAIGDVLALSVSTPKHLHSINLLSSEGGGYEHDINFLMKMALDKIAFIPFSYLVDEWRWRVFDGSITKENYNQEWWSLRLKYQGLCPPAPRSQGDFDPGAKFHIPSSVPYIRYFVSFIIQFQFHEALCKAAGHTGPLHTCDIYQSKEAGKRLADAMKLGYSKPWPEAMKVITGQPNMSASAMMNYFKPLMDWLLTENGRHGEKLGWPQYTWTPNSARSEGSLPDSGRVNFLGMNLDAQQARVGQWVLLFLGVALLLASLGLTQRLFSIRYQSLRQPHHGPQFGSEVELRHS
Assay: ACE inhibitory assay (Hip-His-Leu)
Assay type: biochemical
Conditions: IC50 defined as absolute quantity of peptide to inhibit 50% of 1.0 U ACE; pre-incubated 37 °C 5 min; Hip-His-Leu 12.5 mM, 0.1 M sodium borate, 400 mM NaCl, pH 8.3, 37 °C, 1 h; hippuric acid absorbance at 228 nm; read-out: IC50 Value, ACE inhibitory activity of synthetic peptides
From the text: ACE from rabbit lung was purchased from Sigma Chemical Co. (St. Louis, MO, USA). Hyppuryl-L-histidyl-L-leucine (Hip-His-Leu), thermolysin (EC 3.4.24.27) from Bacillus thermoproteolyticus, pepsin (EC 3.4.23.1) from porcine stomach, trypsin (EC 3.4.21.4) from bovine pancreas and chymotrypsin (EC 3.4.21.1) from bovine pancreas were purchased from Wako Pure Chemical (Osaka, Japan). Synthetic peptides (purity: 99.4%–99.8%) were purchased from Medical Biological Laboratories Co. (Nagoya, Japan). All other reagents were purchased from Wako Pure Chemical Industries (Osaka, Japan).
ACE inhibitory assay was carried out according to the method of Cheng and Cushman with some modifications. Fifteen microliters of sample solution (5.0 mg/mL) were added to 30 μL of ACE (0.2 units/mL), and the mixture was pre-incubated at 37 °C for 5 min. Thirty microliters of Hip-His-Leu solution (12.5 mM in 0.1 M sodium borate buffer containing 400 mM NaCl at pH 8.3) were added to the mixture. After incubation at 37 °C for 1 h, the reaction was stopped by adding 75 μL of 1.0 M HCl. The released hippuric acid was extracted with 450 μL of ethyl acetate. Four hundred microliters of the upper layer were evaporated, and then the hippuric acid was dissolved in 1.5 mL of distilled water. The absorbance at 228 nm of the solution was measured by a spectrophotometer. The inhibition was calculated from the equation [1 − (As − Asb)/(Ac − Acb)] × 100, where Ac is the absorbance of the buffer, Acb is the absorbance when the stop solution was added to the buffer before the reaction, As is the absorbance of the sample, and Asb is the absorbance when the stop solution was added to the sample before the reaction. In this study, we defined the IC50 as an absolute quantity of peptide to inhibit 50% of 1.0 U ACE.

| IC50 [nM] | Compound |
| --- | --- |
| 6100 | CC(C)C[C@H](N)C(=O)N[C@@H](CC(=O)O)C(=O)N[C@@H](Cc1ccc(O)cc1)C(=O)O [LDY] (H-Leu-Asp-Tyr-OH) |
| 44 | CC(C)C[C@H](N)C(=O)N[C@@H](CCCNC(=N)N)C(=O)N[C@@H](Cc1ccc(O)cc1)C(=O)O [LRY] (H-Leu-Arg-Tyr-OH) |
| 140 | CC(C)[C@H](N)C(=O)N[C@@H](Cc1ccc(O)cc1)C(=O)N[C@@H](CCCNC(=N)N)C(=O)N[C@H](C(=O)O)[C@@H](C)O [VYRT] (H-VYRT-OH) |
| > 2800 | FEQDWAS [FEQDWAS] |
